# Key:
# Assay in all cases: CDC bottle bioassay, adult female mosquitoes
# [1] = tested on: An. gambiae Kisumu; format: in vivo, Anopheles gambiae; details: pyrethroid Susceptible
# Protocol: (§1) Examples B1-B3: Bottle Assay Based on the Guideline for Evaluating Insecticide Resistance in Vectors Using the CDC Bottle Bioassay
# […] Once dry, approximately twenty five non-blood fed adult female mosquitoes of the appropriate species and strains (each two or three days old) were aspirated from the stock culture and gently blown into the exposure bottle. The lid of the bottle was replaced, and the bottle placed upright out of direct sun light under standard culture conditions, nominally 28° C. and 60-80% relative humidity.
# (§2) A stopwatch was started, and the assessment of the knock-down were made after 60 minutes. A mosquito was said to be knocked down if it was unable to stand, following the CDC definition.
# (§3) After one hour the mosquitoes were carefully removed from the bottle with an aspirator and placed in a recovery cup. The mosquitoes were supplied with a 10% sucrose solution on a cotton wool bung, and stored under culture conditions. Assessments of the mortality were made after 24 and 48 hours.
# (§4) Each treatment was replicated a minimum of three times, with the mean knockdown or mortality recorded. In each study, a set of bottles was infested with a known insecticide susceptible strain of mosquitoes from the same genera as the resistant strains.
# [2] = tested on: An. gambiae M'Bé; format: in vivo, Anopheles gambiae; details: pyrethroid Resistant
# Protocol: as §1
# (§5) 1 ml of acetone containing a test compound at a defined concentration, and 1500 ppm Mero (Bayer Crop Science) was added to a 250 ml glass bottle, the bottle was placed on a rolling table to coat the inner surfaces as the solvent evaporated. Once dry, approximately twenty five non-blood fed adult female mosquitoes of the appropriate species and strains (each two or three days old) were aspirated from the stock culture and gently blown into the exposure bottle. The lid of the bottle was replaced, and the bottle placed upright out of direct sun light under standard culture conditions, nominally 28° C. and 60-80% relative humidity.
# as §2, §3, §4
# [3] = tested on: An. gambiae KisKDR; format: in vivo, Anopheles gambiae; details: pyrethroid Resistant
# Protocol: as §1, §5, §2, §3, §4
# [4] = tested on: An. gambiae Tiassale; format: in vivo, Anopheles gambiae; details: pyrethroid Resistant
# Protocol: as §1, §5, §2, §3, §4
# [5] = tested on: Anopheles stephensi; format: in vivo; details: pyrethroid Susceptible
# Protocol: as §1, §5, §2, §3, §4
# [6] = Table B1, 25 μg/bottle + 1.5 mg Mero
# [7] = Table B1, 50 μg/bottle + 1.5 mg Mero
# [8] = Table B1, 250 μg/bottle + 1.5 mg Mero
# [9] = Table B2, 50 μg/bottle + 1.5 mg Mero
# [10] = Table B2, 250 μg/bottle + 1.5 mg Mero
# [11] = Table B3, 25 μg/bottle + 1.5 mg Mero
# [12] = Table B3, 50 μg/bottle + 1.5 mg Mero
# [13] = Table B3, 250 μg/bottle + 1.5 mg Mero
smiles,measurement,setting,value
CCN1OCC(NC(=O)c2ccc(C3=NOC(c4cc(Cl)c(F)c(Cl)c4)(C(F)(F)F)C3)cc2C)C1=O (stereo not shown) [Isocycloseram],Mean % mortality 60 minutes,[1]; [6],56.8%
same,Mean % mortality 24 hours,[1]; [6],89.6%
same,Mean % mortality 60 minutes,[1]; [7],88.8%
same,Mean % mortality 24 hours,[1]; [7],100%
same,Mean % mortality 60 minutes,[1]; [8],99.2%
same,Mean % mortality 24 hours,[1]; [8],100%
same,Mean % mortality 60 minutes,[1]; [9],80.77%
same,Mean % mortality 24 hours,[1]; [9],100%
same,Mean % mortality 60 minutes,[1]; [10],80.77%
same,Mean % mortality 24 hours,[1]; [10],100%
same,Mean % mortality 60 minutes,[1]; [11],98.8%
same,Mean % mortality 24 hours,[1]; [11],100%
same,Mean % mortality 60 minutes,[1]; [12],96.4%
same,Mean % mortality 24 hours,[1]; [12],100%
same,Mean % mortality 60 minutes,[1]; [13],99.2%
same,Mean % mortality 24 hours,[1]; [13],100%
same,Mean % mortality 60 minutes,[2]; [9],37.8%
same,Mean % mortality 24 hours,[2]; [9],70.3%
same,Mean % mortality 60 minutes,[2]; [10],89.3%
same,Mean % mortality 24 hours,[2]; [10],100%
same,Mean % mortality 60 minutes,[3]; [9],86.7%
same,Mean % mortality 24 hours,[3]; [9],100%
same,Mean % mortality 60 minutes,[3]; [10],100%
same,Mean % mortality 24 hours,[3]; [10],100%
same,Mean % mortality 60 minutes,[4]; [6],38.4%
same,Mean % mortality 24 hours,[4]; [6],89.6%
same,Mean % mortality 60 minutes,[4]; [7],84%
same,Mean % mortality 24 hours,[4]; [7],100%
same,Mean % mortality 60 minutes,[4]; [8],98.4%
same,Mean % mortality 24 hours,[4]; [8],100%
same,Mean % mortality 60 minutes,[4]; [11],96.9%
same,Mean % mortality 24 hours,[4]; [11],100%
same,Mean % mortality 60 minutes,[4]; [12],99.2%
same,Mean % mortality 24 hours,[4]; [12],100%
same,Mean % mortality 60 minutes,[4]; [13],99.1%
same,Mean % mortality 24 hours,[4]; [13],100%
same,Mean % mortality 60 minutes,[5]; [6],12%
same,Mean % mortality 24 hours,[5]; [6],70.4%
same,Mean % mortality 60 minutes,[5]; [7],60.8%
same,Mean % mortality 24 hours,[5]; [7],98.4%
same,Mean % mortality 60 minutes,[5]; [8],79.2%
same,Mean % mortality 24 hours,[5]; [8],100%
"CC1(C)C(C=C(Cl)Cl)C1C(=O)OCc1cccc(Oc2ccccc2)c1 (stereo not shown) [Permethrin, reference compound]",Mean % mortality 60 minutes,"[1]; Table B1, 20 μg/bottle",100%
same,Mean % mortality 24 hours,"[1]; Table B1, 20 μg/bottle",100%
same,Mean % mortality 60 minutes,"[1]; Table B2, 20 μg/bottle",100%
same,Mean % mortality 24 hours,"[1]; Table B2, 20 μg/bottle",100%
same,Mean % mortality 60 minutes,"[1]; Table B3, 20 μg/bottle",100%
same,Mean % mortality 24 hours,"[1]; Table B3, 20 μg/bottle",100%
same,Mean % mortality 60 minutes,"[2]; Table B2, 20 μg/bottle",12.5%
same,Mean % mortality 24 hours,"[2]; Table B2, 20 μg/bottle",13.9%
same,Mean % mortality 60 minutes,"[3]; Table B2, 20 μg/bottle",100%
same,Mean % mortality 24 hours,"[3]; Table B2, 20 μg/bottle",82.1%
same,Mean % mortality 60 minutes,"[4]; Table B1, 20 μg/bottle",45.6%
same,Mean % mortality 24 hours,"[4]; Table B1, 20 μg/bottle",80%
same,Mean % mortality 60 minutes,"[4]; Table B3, 20 μg/bottle",99.1%
same,Mean % mortality 24 hours,"[4]; Table B3, 20 μg/bottle",91.7%
same,Mean % mortality 60 minutes,"[5]; Table B1, 20 μg/bottle",100%
same,Mean % mortality 24 hours,"[5]; Table B1, 20 μg/bottle",100%
